Molecules are shown by their SMILES.

Drawing on US10023557B2 (LifeSci Pharmaceuticals, Inc., priority 2015, dated 2018), this text covers IC50 for 31 molecules.

For this assay, the target named is human plasma kallikrein (Homo sapiens (Human), UniProt P03952). The assay can be described thus: In vitro enzyme inhibition of human plasma kallikrein (PFR-AMC cleavage). In kind it is biochemical. Particulars: Pro-Phe-Arg-AMC substrate, 37° C., read-out: hPK IC50. The method, then: The ability of the compounds disclosed herein to inhibit human plasma kallikrein activity was quantified according to the procedures below.
human plasma kallikrein, sequence (P03952 391-638): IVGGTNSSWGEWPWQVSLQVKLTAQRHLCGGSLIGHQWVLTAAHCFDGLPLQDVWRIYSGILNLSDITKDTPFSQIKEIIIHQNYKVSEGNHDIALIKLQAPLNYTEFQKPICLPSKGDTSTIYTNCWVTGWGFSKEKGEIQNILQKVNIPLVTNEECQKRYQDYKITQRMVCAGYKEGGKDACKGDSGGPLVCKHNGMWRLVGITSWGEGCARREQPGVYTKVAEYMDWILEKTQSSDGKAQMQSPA
human plasma kallikrein, sequence (P03952 20-390 partner): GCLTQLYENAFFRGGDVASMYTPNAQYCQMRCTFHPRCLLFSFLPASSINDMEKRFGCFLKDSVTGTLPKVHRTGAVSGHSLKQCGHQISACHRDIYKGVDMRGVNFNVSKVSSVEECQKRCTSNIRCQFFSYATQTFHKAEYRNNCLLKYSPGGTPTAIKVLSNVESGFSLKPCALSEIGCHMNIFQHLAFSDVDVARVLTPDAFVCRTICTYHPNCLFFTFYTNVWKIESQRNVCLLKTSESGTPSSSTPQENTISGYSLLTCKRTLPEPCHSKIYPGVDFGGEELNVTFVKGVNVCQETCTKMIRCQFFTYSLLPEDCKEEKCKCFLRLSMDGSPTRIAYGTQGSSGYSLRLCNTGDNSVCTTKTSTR
A 10 mM solution of the test compound was made in DMSO. […] A control tube containing only DMSO is included. 16 μL of each compound test solution was combined with 384 μL of assay buffer (50 mM Tris-HCl pH 7.5, 150 mM NaCl, 0.01% Triton X-100) to yield a “4× test compound buffer stock”.
These solutions are hereby referred to as 4× hPK and 2×PFR-AMC, respectively.
50 μL was removed from this mixture and placed into duplicate wells on a Microfluor 1Black U-bottom microtiter plate (Thermo Scientific). This plate was incubated for 5 minutes at 37° C. To each well, 50 μL of pre-warmed 2×PFR-AMC was added to start the enzymatic reaction. Cleavage of PFR-AMC was monitored in a Biotek Synergy H4 reader set at 37° C. Readings are taken every 43 seconds for 1 hour. […] The IC50 is calculated using the Gen5 (Biotek Instruments).
The ability of the compounds in Table 3 to inhibit human plasma kallikrein activity was determined.
One may read the IC50 as the concentration at which inhibition is half-maximal. Regarding `Cc1cc(N)nc(C)c1CNC(=O)c1ccnc(Cc2cc3cc(Cl)ccc3[nH]2)c1` [Example 147, N-((6-amino-2,4-dimethylpyridin-3-yl)methyl)-2-((5-chloro-1H-indol-2-yl)methyl)isonicotinamide], the IC50 was less than 100 nM.

Take `Cc1cc(N)nc(C)c1CNC(=O)c1ccnc(Cc2cnc3[nH]c(Cl)cc3c2)c1` [Example 150, N-((6-amino-2,4-dimethylpyridin-3-yl)methyl)-2-((2-chloro-1H-pyrrolo[2,3-b]pyridin-5-yl)methyl)isonicotinamide]: the IC50 lay within 100 to 1000 nM.

For `Cc1cc(N)nc(C)c1CNC(=O)c1ccnc(Cc2cc3cc(C(F)(F)F)ccc3[nH]2)c1` [Example 151, N-((6-amino-2,4-dimethylpyridin-3-yl)methyl)-2-((5-(trifluoromethyl)-1H-indol-2-yl)methyl)isonicotinamide], the IC50 lay within 100 to 1000 nM.

With `O=C(NCc1nnc2ccc(Cl)cn12)c1ccnc(Cc2ccc3ncc(Cl)cc3c2)c1` [Example 154, N-((6-chloro-[1,2,4]triazolo[4,3-a]pyridin-3-yl)methyl)-2-((3-chloroquinolin-6-yl)methyl)isonicotinamide], the IC50 was in the range of 100 to 1000 nM.

With `Cc1ccn2nnc(CNC(=O)c3ccnc(Cc4ccc5ncc(Cl)cc5c4)c3)c2c1` [Example 155, 2-((3-chloroquinolin-6-yl)methyl)-N-((5-methyl-[1,2,3]triazolo[1,5-a]pyridin-3-yl)methyl)isonicotinamide], the 50% inhibitory concentration (IC50) lay within 100 to 1000 nM.

Consider `O=C(NCc1cnc2ccc(Cl)cn12)c1ccnc(Cc2ccc3ncc(Cl)cc3c2)c1` [Example 157, N-((6-chloroimidazo[1,2-a]pyridin-3-yl)methyl)-2-((3-chloroquinolin-6-yl)methyl)isonicotinamide], for which the IC50 is more than 10000 nM.

Regarding `Cc1ccn2c(C)nc(CNC(=O)c3ccnc(Cc4ccc5ncc(Cl)cc5c4)c3)c2c1` [Example 158, 2-((3-chloroquinolin-6-yl)methyl)-N-((3,7-dimethylimidazo[1,5-a]pyridin-1-yl)methyl)isonicotinamide], the half-inhibitory concentration (IC50) lay within 100 to 1000 nM.

Turning to `Cc1ccn2c(C)nc(CNC(=O)c3ccnc(Cc4ccc5ncc(C(F)(F)F)cc5c4)c3)c2c1` [Example 159, N-((3,7-dimethylimidazo[1,5-a]pyridin-1-yl)methyl)-2-((3-(trifluoromethyl)quinolin-6-yl)methyl)isonicotinamide], the 50% inhibitory concentration (IC50) is 100 to 1000 nM.

On to `Cc1ccn2c(C(F)(F)F)nc(CNC(=O)c3ccnc(Cc4ccc5ncc(Cl)cc5c4)c3)c2c1` [Example 160, 2-((3-chloroquinolin-6-yl)methyl)-N-((7-methyl-3-(trifluoromethyl)imidazo[1,5-a]pyridin-1-yl)methyl)isonicotinamide], for which the IC50 was more than 10000 nM.

As for `Cc1nc2c(cc1CNC(=O)c1ccnc(Cc3ccc4ncc(Cl)cc4c3)c1)CCN2` [Example 161, 2-((3-chloroquinolin-6-yl)methyl)-N-((6-methyl-2,3-dihydro-1H-pyrrolo[2,3-b]pyridin-5-yl)methyl)isonicotinamide], the IC50 fell in the range of 100 to 1000 nM.

As for `Cc1nc2c(cc1CNC(=O)c1ccnc(Cc3ccc4ncc(C(F)(F)F)cc4c3)c1)CCN2` [Example 162, N-((6-methyl-2,3-dihydro-1H-pyrrolo[2,3-b]pyridin-5-yl)methyl)-2-((3-(trifluoromethyl)quinolin-6-yl)methyl)isonicotinamide], the IC50 is 100 to 1000 nM.

As for `Cc1nc2c(cc1CNC(=O)c1ccnc(Cc3ccc4ncc(C(F)(F)F)cc4c3)c1)CNC2` [Example 164, N-((2-methyl-6,7-dihydro-5H-pyrrolo[3,4-b]pyridin-3-yl)methyl)-2-((3-(trifluoromethyl)quinolin-6-yl)methyl)isonicotinamide], the IC50 is more than 10000 nM.

Turning to `Cc1nc(N)cc(C(F)(F)F)c1CNC(=O)c1ccnc(Cc2ccc3ncc(Cl)cc3c2)c1` [Example 165, N-((6-amino-2-methyl-4-(trifluoromethyl)pyridin-3-yl)methyl)-2-((3-chloroquinolin-6-yl)methyl)isonicotinamide], the IC50 fell in the range of 100 to 1000 nM.

In the case of `COc1cc(N)nc(C)c1CNC(=O)c1ccnc(Cc2ccc3ncc(Cl)cc3c2)c1` [Example 166, N-((6-amino-4-methoxy-2-methylpyridin-3-yl)methyl)-2-((3-chloroquinolin-6-yl)methyl)isonicotinamide], the IC50 was more than 10000 nM.

`Cc1nc(N)cc(C#N)c1CNC(=O)c1ccnc(Cc2ccc3ncc(Cl)cc3c2)c1` [Example 167, N-((6-amino-4-cyano-2-methylpyridin-3-yl)methyl)-2-((3-chloroquinolin-6-yl)methyl)isonicotinamide]: the IC50 was more than 10000 nM.

Turning to `NCc1ccc(CNC(=O)c2ccnc(Cc3ccc4ncc(Cl)cc4c3)c2)cc1` [Example 168, N-(4-(aminomethyl)benzyl)-2-((3-chloroquinolin-6-yl)methyl)isonicotinamide], the IC50 lay in the range of 100 to 1000 nM.

For `NCc1ccc(CNC(=O)c2ccnc(Cc3ccc4ncc(Cl)cc4c3)c2)cn1` [Example 169, N-((6-(aminomethyl)pyridin-3-yl)methyl)-2-((3-chloroquinolin-6-yl)methyl)isonicotinamide], the IC50 was more than 10000 nM.

Consider `NCc1ccc(CNC(=O)c2ccnc(Cc3ccc4ncc(Cl)cc4c3)c2)nc1` [Example 170, N-((5-(aminomethyl)pyridin-2-yl)methyl)-2-((3-chloroquinolin-6-yl)methyl)isonicotinamide], for which the IC50 was more than 10000 nM.

Regarding `Cc1cc(C(C)N)nc(C)c1CNC(=O)c1ccnc(Cc2ccc3ncc(Cl)cc3c2)c1` (stereo not shown) [Example 173, N-((6-(1-aminoethyl)-2,4-dimethylpyridin-3-yl)methyl)-2-((3-chloroquinolin-6-yl)methyl)isonicotinamide], the IC50 fell in the range of 1000 to 10000 nM.

For `Cc1cc(C(C)(C)O)nc(C)c1CNC(=O)c1ccnc(Cc2ccc3ncc(C(F)(F)F)cc3c2)c1` [Example 174, N-((6-(2-hydroxypropan-2-yl)-2,4-dimethylpyridin-3-yl)methyl)-2-((3-(trifluoromethyl)quinolin-6-yl)methyl)isonicotinamide], the IC50 was more than 10000 nM.

On to `Cc1nc2c(c(C)c1CNC(=O)c1ccnc(Cc3ccc4ncc(Cl)cc4c3)c1)CCN2` [Example 175, 2-((3-chloroquinolin-6-yl)methyl)-N-((4,6-dimethyl-2,3-dihydro-1H-pyrrolo[2,3-b]pyridin-5-yl)methyl)isonicotinamide], for which the IC50 was less than 100 nM.

With `O=C(NCc1ccc2cnc(C(F)(F)F)n2c1)c1ccnc(Cc2ccc3ncc(Cl)cc3c2)c1` [Example 185, 2-((3-chloroquinolin-6-yl)methyl)-N-((3-(trifluoromethyl)imidazo[1,5-a]pyridin-6-yl)methyl)isonicotinamide], the IC50 was more than 10000 nM.

Take `Nc1ncc2cc(CNC(=O)c3ccnc(Cc4ccc5ncc(Cl)cc5c4)c3)ccn12` [Example 187, N-((3-aminoimidazo[1,5-a]pyridin-7-yl)methyl)-2-((3-chloroquinolin-6-yl)methyl)isonicotinamide]: the IC50 lay within 100 to 1000 nM.

For the molecule `Cc1cc2cncn2cc1CNC(=O)c1ccnc(Cc2ccc3ncc(Cl)cc3c2)c1` [Example 188, 2-((3-chloroquinolin-6-yl)methyl)-N-((7-methylimidazo[1,5-a]pyridin-6-yl)methyl)isonicotinamide], the IC50 is more than 10000 nM.

For `Cc1c(CNC(=O)c2ccnc(Cc3ccc4ncc(Cl)cc4c3)c2)cnc2[nH]cc(Cl)c12` [Example 189, N-((3-chloro-4-methyl-1H-pyrrolo[2,3-b]pyridin-5-yl)methyl)-2-((3-chloroquinolin-6-yl)methyl)isonicotinamide], the IC50 fell in the range of 100 to 1000 nM.

Consider `Cc1cc2[nH]cc(Cl)c2cc1CNC(=O)c1ccnc(Cc2ccc3ncc(Cl)cc3c2)c1` [Example 190, N-((3-chloro-6-methyl-1H-indol-5-yl)methyl)-2-((3-chloroquinolin-6-yl)methyl)isonicotinamide], for which the IC50 is 100 to 1000 nM.

Regarding `Cc1nc2[nH]cc(Cl)c2cc1CNC(=O)c1ccnc(Cc2ccc3ncc(Cl)cc3c2)c1` [Example 191, N-((3-chloro-6-methyl-1H-pyrrolo[2,3-b]pyridin-5-yl)methyl)-2-((3-chloroquinolin-6-yl)methyl)isonicotinamide], the concentration for half-maximal inhibition (IC50) was less than 100 nM.

With `Cc1nc2[nH]cc(Cl)c2c(C)c1CNC(=O)c1ccnc(Cc2ccc3ncc(Cl)cc3c2)c1` [Example 192, N-((3-chloro-4,6-dimethyl-1H-pyrrolo[2,3-b]pyridin-5-yl)methyl)-2-((3-chloroquinolin-6-yl)methyl)isonicotinamide], the concentration for half-maximal inhibition (IC50) was 100 to 1000 nM.

As for `CC(=O)Nc1cc(C)c(CNC(=O)c2ccnc(Cc3ccc4ncc(Cl)cc4c3)c2)c(C)n1` [Example 193, N-((6-acetamido-2,4-dimethylpyridin-3-yl)methyl)-2-((3-chloroquinolin-6-yl)methyl)isonicotinamide], the half-maximal inhibitory concentration (IC50) lay in the range of 1000 to 10000 nM.

Turning to `Cc1cc(C)c(CNC(=O)c2ccnc(Cc3ccc4ncc(Cl)cc4c3)c2)c(C)n1` [Example 194, 2-((3-chloroquinolin-6-yl)methyl)-N-((2,4,6-trimethylpyridin-3-yl)methyl)isonicotinamide], the IC50 fell in the range of 1000 to 10000 nM.

As to `Cc1nc2c(c(C)c1CNC(=O)c1ccnc(Cc3ccc4ncc(Cl)cc4c3)c1)CCCN2` [Example 195, 2-((3-chloroquinolin-6-yl)methyl)-N-((2,4-dimethyl-5,6,7,8-tetrahydro-1,8-naphthyridin-3-yl)methyl)isonicotinamide], the IC50 is less than 100 nM.
